Source: patent US8258296B2, “Crystalline antifungal compounds” (Palau Pharma, S.A., priority 2006, dated 2012)

How the values were obtained:
Type in all cases: physicochemical
[1] = Storage stability, detection of degradation products
Description: (§1) Accordingly, the present subject matter relates to methods of identifying, obtaining, and purifying the various crystalline forms of (1R,2R)-7-chloro-3-[2-(2,4-difluorophenyl)-2-hydroxy-1-methyl-3-(1H-1,2,4-triazol-1-yl)propyl]quinazolin-4(3H)-one. These crystalline forms, namely Forms I-VI, were identified as six distinct crystal forms. Certain physical characteristics of these crystalline forms generated during crystallization studies, are as follows: • Form I: typically obtained by crystallizing the amorphous form using supercritical CO2 crystallization conditions. […] Diethyl ether can then be optionally added. […] Form V can best be characterized as a crystalline phase containing between about 2 and about 7% by weight of ethyl acetate and about 0.5 to about 2.5% by weight of hexane. • Form VI: typically obtained by slurrying (1R,2R)-7-chloro-3-[2-(2,4-difluorophenyl)-2-hydroxy-1-methyl-3-(1H-1,2,4-triazol-1-yl)propyl]quinazolin-4(3H)-one in aqueous ethanol or by slowly cooling a saturated aqueous ethanol solution that was seeded. This form may be obtained when the slurry comprises any other Form of (1R,2R)-7-chloro-3-[2-(2,4-difluorophenyl)-2-hydroxy-1-methyl-3-(1H-1,2,4-triazol-1-yl)propyl]quinazolin-4(3H)-one, such as, for example, the amorphous form, Form III, Form IV, Form V, or combinations thereof. […]

[2] = Solid-form conversion on extended storage; details: storage for 3 months at 40° C. and 75% RH
Description: as §1

[3] = Slurry experiment to estimate rate of conversion of Form III to Form VI (XRPD); details: slurry at 45° C. in ethanol-water (1:9), seeded with Form VI, XRPD analysis
Description: Form VI may be prepared by slurrying albaconazole in aqueous ethanol or by slowly cooling a saturated aqueous ethanol solution that was seeded. In order to estimate rate of conversion, a slurry experiment of Form III was setup at 45° C. in ethanol-water (1:9), seeded with Form VI and aliquots periodically removed. Solids from the first aliquot removed after ˜3 hours were composed of only Form VI by XRPD analysis. A slow cool method was also attempted by cooling a saturated solution of albaconazole in aqueous ethanol that was seeded. Form VI solids were isolated in a 41% yield.

[4] = Hygroscopicity characterisation

C[C@@H](n1cnc2cc(Cl)ccc2c1=O)[C@](O)(Cn1cncn1)c1ccc(F)cc1F [Form III, (1R,2R)-7-chloro-3-[2-(2,4-difluorophenyl)-2-hydroxy-1-methyl-3-(1H-1,2,4-triazol-1-yl)propyl]quinazolin-4(3H)-one]
degradation products detected after storage ([1]; 6 months of storage at 25° C./60% RH): No degradation products
degradation products detected after storage ([1]; 6 months of storage at 30° C./65% RH): No degradation products
conversion of the original form to Form IV on storage [2]: some but not all of the original form converts to Form IV
time to complete conversion of slurry to Form VI [3]: ~3 h

C[C@@H](n1cnc2cc(Cl)ccc2c1=O)[C@](O)(Cn1cncn1)c1ccc(F)cc1F [Form VI, (1R,2R)-7-chloro-3-[2-(2,4-difluorophenyl)-2-hydroxy-1-methyl-3-(1H-1,2,4-triazol-1-yl)propyl]quinazolin-4(3H)-one]
hygroscopicity [4]: non-hygroscopic
